For one molecule, inhibition results are on record in US11572590B2, “Methods for evaluating tumor cell spheroids using 3D microfluidic cell culture device” (Dana-Farber Cancer Institute, Inc., priority 2017, dated 2023).

Molecules are shown by their SMILES. Where two headings read alike, the source gives them in different places.

Assay in all cases: SelectScreen Kinase Profiling, single point inhibition and IC50 for off-target kinases
Common to all, as to assay type: biochemical

Assay [1] addresses off-target kinases (Homo sapiens, UniProt Q9HC98). The settings on record: NEK6, ZLYTE, ATP Km app.
In assay [2] the target is off-target kinases (Homo sapiens, UniProt Q16816). The settings on record: PHKG1, ZLYTE, ATP Km app.
Chain of off-target kinases (Homo sapiens, UniProt Q16816) (Q16816 whole entry): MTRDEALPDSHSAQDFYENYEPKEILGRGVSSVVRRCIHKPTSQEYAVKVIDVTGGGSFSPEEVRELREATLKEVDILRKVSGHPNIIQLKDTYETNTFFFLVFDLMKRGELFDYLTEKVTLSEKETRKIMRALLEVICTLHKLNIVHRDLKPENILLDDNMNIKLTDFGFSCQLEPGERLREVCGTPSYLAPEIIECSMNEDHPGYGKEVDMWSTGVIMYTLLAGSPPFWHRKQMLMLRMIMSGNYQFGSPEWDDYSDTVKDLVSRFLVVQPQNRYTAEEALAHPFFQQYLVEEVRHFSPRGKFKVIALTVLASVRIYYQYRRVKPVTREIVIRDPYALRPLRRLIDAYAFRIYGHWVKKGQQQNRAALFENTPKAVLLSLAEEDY
Assay [3] has as its target off-target kinases (Homo sapiens, UniProt P17612). The settings on record: PRKACA (PKA), ZLYTE, ATP Km app.
Assay [4] has as its target T1, off-target kinases (Homo sapiens, UniProt O43781).
T1 sequence (O43781 1-588): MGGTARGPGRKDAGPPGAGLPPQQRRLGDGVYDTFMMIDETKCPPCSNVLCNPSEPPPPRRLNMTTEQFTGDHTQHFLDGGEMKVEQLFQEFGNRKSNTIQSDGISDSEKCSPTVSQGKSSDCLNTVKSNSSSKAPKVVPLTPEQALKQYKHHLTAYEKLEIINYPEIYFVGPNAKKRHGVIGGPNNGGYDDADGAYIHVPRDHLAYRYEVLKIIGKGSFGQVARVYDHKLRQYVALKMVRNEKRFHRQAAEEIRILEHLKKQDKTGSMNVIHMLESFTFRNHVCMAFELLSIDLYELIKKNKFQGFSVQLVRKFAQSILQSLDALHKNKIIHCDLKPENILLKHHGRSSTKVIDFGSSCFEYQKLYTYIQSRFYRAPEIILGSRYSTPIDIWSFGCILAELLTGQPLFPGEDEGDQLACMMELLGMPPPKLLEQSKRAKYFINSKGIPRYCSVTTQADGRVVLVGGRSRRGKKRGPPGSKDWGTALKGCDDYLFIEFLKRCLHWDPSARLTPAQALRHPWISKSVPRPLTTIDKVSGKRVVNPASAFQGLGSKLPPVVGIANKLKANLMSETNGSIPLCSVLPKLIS
The following applies: DYRK3, ZLYTE, ATP Km app.

The target of assay [5] is T2, off-target kinases (Homo sapiens, UniProt Q9NR20).
T2 sequence (Q9NR20 1-520): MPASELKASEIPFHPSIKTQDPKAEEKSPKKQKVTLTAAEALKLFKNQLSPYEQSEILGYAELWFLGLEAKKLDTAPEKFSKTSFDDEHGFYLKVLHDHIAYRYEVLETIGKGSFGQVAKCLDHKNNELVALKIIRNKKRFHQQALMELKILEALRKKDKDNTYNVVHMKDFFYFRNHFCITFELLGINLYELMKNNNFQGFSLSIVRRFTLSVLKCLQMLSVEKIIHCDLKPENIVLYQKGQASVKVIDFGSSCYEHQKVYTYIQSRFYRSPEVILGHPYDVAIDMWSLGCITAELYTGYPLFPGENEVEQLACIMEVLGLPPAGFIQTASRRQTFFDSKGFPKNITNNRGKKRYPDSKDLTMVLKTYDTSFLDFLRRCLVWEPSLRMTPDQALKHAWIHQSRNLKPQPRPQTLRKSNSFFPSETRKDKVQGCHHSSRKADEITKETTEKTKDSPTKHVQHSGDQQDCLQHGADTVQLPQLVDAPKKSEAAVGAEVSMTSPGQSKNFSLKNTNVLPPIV

In assay [6] the target is off-target kinases (Homo sapiens, UniProt Q8N568). The following applies: DCAMKL2 (DCK2), ZLYTE, ATP Km app.
Chain of off-target kinases (Homo sapiens, UniProt Q8N568) (Q8N568 whole entry): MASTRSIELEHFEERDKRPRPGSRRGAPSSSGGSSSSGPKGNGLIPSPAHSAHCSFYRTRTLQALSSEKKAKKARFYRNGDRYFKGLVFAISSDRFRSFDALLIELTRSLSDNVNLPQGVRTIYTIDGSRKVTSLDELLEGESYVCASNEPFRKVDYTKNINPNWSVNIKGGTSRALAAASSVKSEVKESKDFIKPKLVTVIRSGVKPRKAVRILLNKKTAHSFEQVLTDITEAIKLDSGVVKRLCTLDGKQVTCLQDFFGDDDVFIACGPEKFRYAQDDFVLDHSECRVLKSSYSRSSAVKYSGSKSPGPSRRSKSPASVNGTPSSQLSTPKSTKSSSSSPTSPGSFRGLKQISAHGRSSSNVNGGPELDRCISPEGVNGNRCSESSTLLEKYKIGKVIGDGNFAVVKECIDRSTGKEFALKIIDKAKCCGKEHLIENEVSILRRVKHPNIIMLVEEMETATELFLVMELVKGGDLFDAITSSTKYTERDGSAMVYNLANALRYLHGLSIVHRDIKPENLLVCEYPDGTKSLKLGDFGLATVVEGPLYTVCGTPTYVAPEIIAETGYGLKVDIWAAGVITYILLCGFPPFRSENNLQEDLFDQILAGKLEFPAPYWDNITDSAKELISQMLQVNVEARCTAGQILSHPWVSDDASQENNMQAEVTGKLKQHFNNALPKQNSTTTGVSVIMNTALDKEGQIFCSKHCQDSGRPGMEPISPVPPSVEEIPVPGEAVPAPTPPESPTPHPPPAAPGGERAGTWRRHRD

Chain of off-target kinases (Homo sapiens, UniProt Q9HC98) (Q9HC98 whole entry): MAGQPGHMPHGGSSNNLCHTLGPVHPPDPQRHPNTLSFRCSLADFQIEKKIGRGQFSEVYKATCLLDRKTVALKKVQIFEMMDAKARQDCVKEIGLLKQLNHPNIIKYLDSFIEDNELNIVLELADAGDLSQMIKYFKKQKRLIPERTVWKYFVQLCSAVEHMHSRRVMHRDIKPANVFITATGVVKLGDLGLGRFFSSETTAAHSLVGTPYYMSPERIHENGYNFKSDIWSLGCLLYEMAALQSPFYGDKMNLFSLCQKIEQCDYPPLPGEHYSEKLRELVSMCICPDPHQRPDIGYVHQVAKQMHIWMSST

One may read the inhibition as the relative decrease from the control value, in per cent. For the molecule `N#Cc1cc(-c2ncnc(Nc3ccc(N4CCN(C5COC5)CC4)cc3)n2)ccc1OC1CCOCC1` [Compound 1, 5-(4-((4-(4-(oxetan-3-yl)piperazin-1-yl)phenyl)amino)-1,3,5-triazin-2-yl)-2-((tetrahydro-2H-pyran-4-yl)oxy)benzonitrile], the inhibition was 12% at off-target kinases [1] (read-out: % Inhibition 1); 6% on off-target kinases [1] (read-out: % Inhibition 2); 9% on off-target kinases [1] (read-out: % Inhibition Avg); 39% on off-target kinases [2] (read-out: % Inhibition 1); 37% at off-target kinases [2] (read-out: % Inhibition 2); 38% at off-target kinases [2] (read-out: % Inhibition Avg). In addition, the inhibition was found to be 4% at off-target kinases [3] (read-out: % Inhibition 1); 1% at off-target kinases [3] (read-out: % Inhibition 2); 3% at off-target kinases [3] (read-out: % Inhibition Avg); 26% at off-target kinases [4] (read-out: % Inhibition 1); 24% on off-target kinases [4] (read-out: % Inhibition 2); 25% on off-target kinases [4] (read-out: % Inhibition Avg). For the same molecule, the inhibition at off-target kinases [5] (read-out: % Inhibition 1) is -2%; at off-target kinases [5] (read-out: % Inhibition 2) it was 0%; on off-target kinases [5] (read-out: % Inhibition Avg), -1%; at off-target kinases [6] (read-out: % Inhibition 1) it was 11%; on off-target kinases [6] (read-out: % Inhibition 2) it was 3%; on off-target kinases [6] (read-out: % Inhibition Avg), 7%.
